Values of other authors as cited in patent US20020076434A1, “Liposomal retinoid therapy in hormone refractory prostate cancer” (Aronex Pharmaceuticals, Inc., priority 2000, published 2002).

Tests used:
[1] = system: HRPC; conditions: Kelly: 50 mg/m^2 every 8 hours for 8 weeks, 14 patients; Trump: days 1-14 every 22 days, 17 patients
[2] = system: HRPC
[3] = one patient achieving CR, baseline PSA 25.0 ng/mL

## CC1=C(/C=C/C(C)=C/C=C/C(C)=C/C(=O)O)C(C)(C)CCC1 [oral ATRA, all trans retinoic acid]
[1]
  Tumor response: little tumor response
[2]; 26 HRPC patients, oral 45 mg/m^2 daily for 7 days, 7 days off, resumed Day 14
  Number of biological responses: 4
[2]; [3]
  Maximum response duration: 3 month
  Time serum PSA remained within normal limits after the last dose: 8 weeks
